From patent US10444228B2, “Method of screening a candidate compound for inducing bile canalicular function disorders” (Biopredic International, priority 2014, dated 2019)

Tests used:
Format in all cases: cell-based, human
[1] = tested on: Rho-kinase; test: Rho-kinase activity (Merck-Millipore kit) in treated cell lysates; settings: differentiated HepaRG cells, 2 h, 1-50 μM
Method: Differentiated HepaRG cells were exposed to increased doses of CPZ (from 1-50 μM) for 2 h and Rho-kinase activity was measured (kit Merck-Millipore) according to manufacturer. Untreated cells and cells exposed to the Rho-kinase inhibitor Y27632 (10 μM) were used for controls.

[2] = tested on: differentiated HepaRG cells (bile canalicular lumen); test: Bile canaliculi lumen morphology by F-actin (phalloidin) / CDFDA imaging; settings: for change of bile canaliculus lumen (constriction or swelling): Example 1, 2 h exposure, F-actin phalloidin staining; for change of bile canaliculus lumen (constriction or swelling) / change of biliary lumen (constriction or swelling): differentiated HepaRG cells; for induction of cholestasis (phenotype with swollen lumen) / change of biliary lumen (constriction or swelling): Example 2; for induction of cholestasis (phenotype with swollen lumen): HepaRG cells; for change of biliary lumen (constriction or swelling): F-actin phalloidin and CDFDA staining
Method: Two week DMSO-treated HepaRG cultures were exposed to 50 μM CPZ for 2 h and analyzed at different times during exposure. Constriction was evidenced by F-actin staining using phalloidin.
Comparison of the cytoskeleton organization of control cells versus CPZ and Y27632 treated cultures for 2 h. Fibers of F-actin accumulated at the biliary were labelling by phalloidin and counterstaining of nuclei was performed by Hoechst staining.
ii)—Analysis of the F-actin organization and biliary lumen changes using phalloidin and fluorescent CDFDA staining. After exposure to the candidate compounds, cells were washed twice, fixed with Paraformaldehyde (4%) fixative for 20 min, washed and stained with phalloidin for 10 min. For CDFDA staining, details are provided below.
Images obtained on microscope were used for calculating the size of the biliary lumen after treatment. Appropriate algorithm has been developed for quantification using Cellomics equipment.

[3] = tested on: ZO-1; test: Immunolocalization of junctional protein ZO-1; settings: treated HepaRG cultures
[4] = tested on: phosphorylated myosin light chain (P-MYL9); test: Western blotting of phosphorylated myosin light chain; settings: for P-myosin (P-MYL9) level by western blotting: Example 2, after 1 hour
Method: Accumulation of phosphorylated light chain myosin was evidenced by western blotting technique in using the (P)-MYl2 antibody. Control cells, 2h-CPZ treated cells and 2h-y27632-treated cells were compared. Cell lysates were prepared.
Accumulation of the phosphorylated myosin light chain was performed by western blotting using p-Myl antibody.

[5] = tested on: HepaRG cells (canalicular efflux); test: Efflux of [3H]-taurocholate
Method: Efflux of Taurocholate (TA). Cells were first exposed to [3H]-TA for 30 min, then washed with PBS and incubated with or without CPZ at different time points (from 0 to 6 hours) in a standard buffer with Ca2+ and Mg2+. After the incubation time, cells were washed with PBS and incubated for 5 min with a Ca2+ and Mg2+− free buffer in order to disrupt the canalicular tight junctions. Then they were scraped in 0.1 N NaOH; the remaining radiolabeled substrate was measured through scintillation counting to determinate TA efflux. To discriminate between basolateral and canalicular efflux, cells were incubated in parallel in either standard or Ca2+ and Mg2+-free buffer for 30 minutes after TA uptake before measuring the remaining radiolabeled TA. Canalicular efflux was calculated using this equation: Canalicular efflux: Radioactivity in efflux mediumCa2+ and Mg2+ free buffer—Radioactivity in efflux medium Standard buffer. Differentiated cells were exposed or not to CPZ (50 μM for 2 h) before radiolabelled TA addition.

[6] = tested on: differentiated HepaRG cells (canalicular clearance); test: Biliary clearance activity with CDFDA marker compound; settings: versus control cells
Method: The first step was incubation with the marker compound. CDFDA was preferentially used. After washing, differentiated cells plated in wells from 24 well-plates, were washed with HBSS buffer twice and incubated with 250 μl of CDFDA solution prepared at the final concentration of 3 μM in HBSS buffer containing Ca++ buffer (pH 7.4). After 30 min cells were washed with the same buffer. […] Quantification of the fluorescent dye into the medium is performed. A comparative evolution was established between control (untreated) and CPZ- and EF-treated cells. […] Calculation of the amount of released fluorescent dye molecules was performed by spectrometry and the canalicular clearance efficiency (CCE) was determined per time unit.

[7] = tested on: differentiated HepaRG cells (canalicular clearance); test: Biliary clearance with Rhodamin 123 marker compound
Method: Another assay was performed with Rhodamin 123 as marker compound.

[8] = tested on: HepaRG cells; test: Accumulation of labelled taurocholate in cells including canaliculi space; settings: increased concentrations, compared to control
Description: The data also provides information related to junctional complex organization and the role of metalloproteinases in controlling permeability.

Compound	Rho-kinase activity [1]	change of bile canaliculus lumen (constriction or swelling) [2]	induction of cholestasis (phenotype with swollen lumen) [2]	change of biliary lumen (constriction or swelling) [2]	distribution of ZO-1 at the biliary pole [3]	P-myosin (P-MYL9) level by western blotting [4]	further results
S=C=Nc1cccc2ccccc12 [ANIT]	activate the Rho-kinase activity	inducing lumen constriction	inducing cholestasis	relaxation/swelling	appears normal		
CC(=O)/C(C)=N/O [BDM]						inhibition of P-myosin phosphorylation	
CN(C)CCCN1c2ccccc2Sc2ccc(Cl)cc21 [CPZ, chlorpromazine]	dose-dependent activation of Rho-kinase	Constriction of canaliculus lumen		lumen constriction	appears normal	accumulation of P-myosin	myosin-light chain phosphorylation (immunoblotting) ([4]; Example 1, 2 h treated HepaRG cells): accumulation of myosin-light chain phosphorylation; change of bile canaliculus lumen (constriction or swelling) ([2]; listed as chlorpromazine): constriction of the canaliculus lumen; change of biliary lumen (constriction or swelling) ([2]; listed as chlorpromazine): abnormal and permanent lumen constriction; taurocholate efflux ([5]; CPZ 50 μM): decrease of taurocholate efflux; clearance of CDFDA dye out of the canalicular space [6]: delay in the clearance of dye; clearance of CDFDA dye out of the canalicular space ([6]; listed as chlorpromazine): delay of clearance; clearance of Rhodamin 123 dye [7]: delay
C[C@H](CCC(=O)O)[C@H]1CC[C@H]2[C@@H]3CC[C@@H]4C[C@H](O)CC[C@]4(C)[C@H]3C[C@H](O)[C@]12C [DCA, Deoxycholic acid]			inducing cholestasis				
O=S(=O)(c1cccc2cnccc12)N1CCCNCC1 [Fasudil]			inducing cholestasis	relaxation/swelling	appears normal		accumulation of labelled taurocholate in cells including canaliculi space [8]: abnormal accumulation of labelled taurocholate; accumulation of labelled taurocholate in cells including canaliculi space ([8]; listed as fasudil): highest values
C=CC[C@@H]1/C=C(\C)C[C@H](C)C[C@H](OC)[C@H]2O[C@@](O)(C(=O)C(=O)N3CCCC[C@H]3C(=O)O[C@H](/C(C)=C/[C@@H]3CC[C@@H](O)[C@H](OC)C3)[C@H](C)[C@@H](O)CC1=O)[C@H](C)C[C@@H]2OC [Fk, Tacrolimus]	activate the Rho-kinase activity	inducing lumen constriction					
C[C@@H](N)[C@H]1CC[C@H](C(=O)Nc2ccncc2)CC1 [Y27632]		swelling/relaxation		swelling		inhibition of P-myosin phosphorylation	accumulation of labelled taurocholate in cells including canaliculi space [8]: abnormal accumulation of labelled taurocholate; taurocholate efflux with Rho-kinase inhibitor added to CPZ ([5]; in presence of CPZ): recovery of taurocholate efflux activity; clearance of CDFDA dye out of the canalicular space [6]: delay in biliary clearance; clearance of CDFDA dye out of the canalicular space ([6]; listed as EF): delay in the clearance of dye; clearance of Rhodamin 123 dye [7]: delay
COc1ccccc1Oc1c(NS(=O)(=O)c2ccc(C(C)(C)C)cc2)nc(-c2ncccn2)nc1OCCO [bosentan]				abnormal and prolonged canalicular lumen swelling			
Cyclosporin A [CsA]	activate the Rho-kinase activity	inducing lumen constriction		lumen constriction		accumulation of P-myosin	change of biliary lumen (constriction or swelling) ([2]; listed as cyclosporine A): constriction
